Where a SMILES comes first, the peptide text is derived from it. Bridges are numbered along the chain shown (N, C = ends). [ ]: non-standard residue; d: D form. The star is where a group is joined. 2Nal = N[C@@H](Cc1ccc2ccccc2c1)C(=O)O; Lys(iPr) = CC(C)NCCCC[C@H](N)C(=O)O; Benzoyl(4-F) = O=C(c1ccc(F)cc1)*; Cit = NC(=O)NCCC[C@H](N)C(=O)O
How the values were obtained:
A549-CXCR4-ADRB2 cells [1] = experiment: Proliferation assay (Prestoblue), A549-CXCR4-ADRB2 cells; settings: serum free, 72 hr; for block of CXCL12 effect on cell proliferation: FIGS. 18A-18E, 10 μM (AMD070 1 μM)
Description: A549 parent cells or A549-CXCR4-ADRB2 cells were plated at a density of 1×10^4 cells/well in 96-well plates and incubated in culture medium for 24 hr to allow adherence. […] At the end of incubation, cell proliferation was assessed by using Prestoblue Cell Viability Reagent (Thermo Fisher Scientific) according to the manufacture's instruction.
A549 double negative (RLuc-lucP) or A549-CXCR4-ADRB2 cell lines overexpressing both CXCR4 and ADRB2 plated at a density of 1×10^4 cells/well in 96-well plates and incubated in culture medium for 24 hr to allow adherence. After washing, Serum free RPMI1640±SDF-1α with or without indicated drugs were added and the cells were incubated for 72 hr (96 hr post seeding) at 37° C., 5% CO2. At the end of incubation, cell proliferation was assessed by using Prestoblue Cell Viability Reagent (Thermo Fisher Scientific, Cat. A13262) according to the manufacture's instruction. Briefly, cells were incubated in 1× Prestoblue Cell Viability Reagent for 1 hr at 37° C. Fluorescence was measured at 560 nm excitation and 590 nm emission using Varioskan LUX multimode microplate reader (Thermo Fisher Scientific). The amount of fluorescence detected was proportional to the number of cells within a well. Results are expressed as mean ratio (FluorescenceDrug/FluorescenceVehicle only) from triplicate wells±SEM.

A549-CXCR4-ADRB2 cells [2] = experiment: A549-CXCR4-ADRB2 xenograft, tumor growth; type: in vivo, mouse; settings: 10 mpk; in only 2 doses
Description: The antitumor effect in mice transplanted with A549 cells containing CXCR4-ADRB2 by stably overexpressing both CXCR4 and ADRB2 (“A549-CXCR4-ADRB2 cells”) was evaluated using CXCR4 inhibitors currently under development or on the market. A549-CXCR4-ADRB2 cells (1×10^7 cell/head) were injected subcutaneously in nude mice. […]. The CXCR4 inhibitors were administered once a day for 4 weeks.
Five week-old, female Balb/c-nu/nu mice were obtained from Envigo (France) and maintained in specific pathogen-free animal facility. All protocols for animal use and euthanasia were approved by the Qubest Bio (South Korea) Animal Experimental Ethics Committee based on the Animal Protection Act. […] The tumor growth was monitored every third or fourth day by measuring the length (L) and width (W) of the tumor with an electronic caliper and calculating tumor volume in the basis of the following formula: Volume=0.5 LW^2.
For the antitumor efficacy test using CXCR4 inhibitors, A549-CXCR4-ADRB2 cell line overexpressing CXCR4 and ADRB2 in A549, lung cancer cell line was subcutaneously administered (1×10^7 cell in 100 μL PBS/head) to BALB/c-nu. […] The tumor growth was monitored every third or fourth day by measuring the length (L) and width (W) of the tumor: Volume=0.5 LW^2.

[3] = system: MDA-MB-231-CXCR4-ADRB2 cells; experiment: MDA-MB-231-CXCR4-ADRB2 orthotopic xenograft, tumor growth; type: in vivo, mouse; settings: FIG. 22C; for suppression of tumor growth, single administration: once a day for 4 weeks
Description: The size of the tumors was calculated by converting the tumor size to 100 on the first day of drug administration (% tumor growth). […] Place the needle point in the pre-administration site (between the nipple 2 and 3) and move it to the right or left to make a wide subcutaneous pocket. The Matrigel Mixture (matrigel: cell suspension=50:50) is injected into the subcutaneous pocket. The animals are placed in a breeding box after confirming that the liquid is not spilled at the injection site. […] The day of drug treatment is defined as Day 1. […] The size of the tumor was calculated by converting the tumor size to 100 on the first day of drug administration.

[4] = system: patient derived cells (PDCs) from glioblastoma; experiment: Survival of patient derived cells (ATPlite); type: cell-based, human; settings: PDC expressing CXCR4 and ADRB2; 7 days
Description: Single cell suspensions of resected and dissociated glioblastoma tissues from patients were prepared (provided by Samsung Seoul hospital in Seoul, Korea). These cells were cultured under conditions optimal for propagation and non-differentiation of normal neuronal stem cell. Media were composed serum free Neurobasal media supplemented with basic FGF and EGF.
The effects of GPCRx antagonist on the survival of patient derived cells (PDCs) were assessed using ATPlite (PerkinElmer, Cat. No. 6016739 reagent). ATPlite is an Adenosine Triphospate monitoring system based on firefly luciferase. This luminescence assay is the alternative to colorimetric, fluorometric and radioisotopic assays for the quantitative evaluation of proliferation and cytotoxicity of cultured mammalian cells. Cells were seeded in 384-well plate at 500 cells/well in 40 μL culture media. After overnight growth, the cells were cultured for 7 days in the presence of several dose of GPCRx antagonist or DMSO alone. After a 7-day incubation, 15 μL ATPlite was added into the each well and the plate were shaken for 5 minutes in an orbital shaker at 700 rpm. The luminescent signal was detected within 30 minutes at PerkinElmer TopCount detection instrument. The cell viability was calculated using the equation: Cell viability (%)=(OD of antagonist treatment/OD of DMSO only treatment)×100%.

ERK1/2 [5] = experiment: Western blot of phospho-ERK1/2, MDA-MB-231 cell lines; type: cell-based, human; settings: for ERK1/2 activation, single agonist: MDA-MB-231 parent, MDA-MB-231-CXCR4 and MDA-MB-231-CXCR4-ADRB2 cells, data not shown
Description: MDA-MB-231 cells and A549 cells, expressing Rluc-luc2P or CXCR4, or containing CXCR4-ADRB2 heteromer, were seeded in 6 well plates at a density of 5×10^5 cells per well. […] Thereafter, each of the sets of cells were harvested and performed western blotting analysis.
Cells were seeded in 6 well plates at a density of 5×10^5 cells per well. […] Thereafter, the cells were harvested using NP-40 lysis buffer (Thermo Fisher Scientific, #FNN0021) supplemented with phosphatase inhibitor cocktail (Roche, #4906845001) and protease inhibitor cocktail (Thermo Fisher Scientific, #A32953). Proteins of cell lysates concentrations were determined by the Bio-Rad protein assay (Bio-Rad, #5000006). 20 μg of protein samples were subjected to reducing SDS-PAGE and transferred to PVDF (Polyvinylidene difluoride) using dry transfer system (Thermo Fisher Scientific, #IB21001). The membranes were blocked with 5% skim milk (BD Difco, #232100) in Tris-Buffered Saline with 1% Tween-twenty for 1 hour and incubated with phospho-ERK1/2 Thr202/Tyr204 (Cell Signaling Technology, #4370) and total-ERK1/2 (Cell Signaling Technology, #4695) antibodies. Antigen-antibody complexes were detected by incubating with horseradish peroxidase coupled secondary antibodies (Cell Signaling Technology) followed by SuperSignal West Femto Maximum Sensitivity Substrate (Thermo Fisher Scientific, #34096). Western blot images were captured and analyzed by iBright Western Blot Imaging System (Thermo Fisher Scientific, #A32752).

ERK1/2 [6] = experiment: Western blot of phospho-ERK1/2, A549 cell lines; type: cell-based, human; settings: A549-CXCR4-ADRB2 cells; 10 nM each; 10 minutes
Description: Cells were seeded in 6 well plates at a density of 5×10^5 cells per well. […] Proteins of cell lysates concentrations were determined by the Bio-Rad protein assay (Bio-Rad, #5000006). 20 μg of protein samples were subjected to reducing SDS-PAGE and transferred to PVDF (Polyvinylidene difluoride) using dry transfer system (Thermo Fisher Scientific, #IB21001). […] Western blot images were captured and analyzed by iBright Western Blot Imaging System (Thermo Fisher Scientific, #A32752).

CXCR4-ADRB2 heteromer [7] = target: T1, CXCR4-ADRB2 heteromer (Homo sapiens, UniProt P07550+P61073); experiment: Calcium mobilization assay, U937 cells endogenously expressing CXCR4 and ADRB2; type: cell-based
CXCR4-ADRB2 heteromer [8] = target: T1, CXCR4-ADRB2 heteromer; experiment: Calcium mobilization assay, MDA-MB-231 cells co-transduced with CXCR4 and ADRB2; type: cell-based; settings: for decrease of IC50 of Ca2+ response upon co-administration of Carvedilol / IC50: Table 4; for decrease of IC50 of Ca2+ response upon co-administration of Carvedilol: Carvedilol 600 nM; for IC50: IC50 of Ca2+ response
Description: The next day, the cells were co-transduced with 10 MOI of CXCR4 and 30 MOI of GPCRx. […] Calcium mobilizations were measured using FlexStation 3 Multi-Mode Microplate Reader. The results were normalized for base-line activity. Calcium mobilizations were quantified by calculating the area-under-the-curve (AUC) of each graph.
MDA-MB-231 cells were transduced with adenoviruses encoding CXCR4 only, or CXCR4 and ADRB2.
Calcium mobilization was measured using FlexStation3, and the resulting IC50 values of calcium response were calculated using GraphPad Prism software.
The next day, cells were co-transduced with 10 MOI of CXCR4 and 30 MOI of GPCRx. Adenoviruses encoding HA-VC were used to adjust the total amount of adenoviruses transduced. After 2 days, cells were treated with antagonist with indicated amounts and incubated with Cal 6 (FLIPR® Calcium 6 Assay Kit by Molecular Devices, Cat. R8191) for 2 hr. […] Calcium mobilization was measured using FlexStation 3 Multi-Mode Microplate Reader (Molecular Devices, Sunnyvale, Calif., USA). The results were normalized for base-line activity. […] Data represent three independent experiments (mean±SEM).

CXCR4-ADRB2 heteromer [9] = target: T1, CXCR4-ADRB2 heteromer; experiment: Calcium mobilization assay, HL-60 cells endogenously expressing CXCR4 and ADRB2; type: cell-based; settings: for decrease of IC50 of Ca2+ response upon co-treatment of carvedilol, HL-60: Carvedilol 10 μM
ADRB2 = target: T2, ADRB2 (Homo sapiens, UniProt P07550); experiment: Calcium mobilization assay, MDA-MB-231 cells transduced with ADRB2 only; type: cell-based; settings: FIG. 5B; CXCL12 15 nM, salmeterol 100 nM
T2 construct: expressed in transfected cells; host or cells: MDA-MB-231 (adenoviral transduction)

CXCR4-ADRB2 heteromer [10] = target: T1, CXCR4-ADRB2 heteromer; experiment: Internalization inhibition assay, CXCR4-GFP U-2 OS cells transduced with ADRB2; settings: FIG. 8; CXCL12 20 nM or antagonist 10 μM; 20 minutes
Description: To further study if co-internalization of CXCR4 heterodimer was blocked by partner GPCRx antagonists, internalization inhibition assay was performed. […] If CXCR4 formed heterodimer with GPCRx and co-internalized by partner GPCRx, it can be blocked by GPCRx specific antagonist.
Here, the GPCRx evaluated was ADRB2.

CXCR4 = target: T3, CXCR4 (Homo sapiens, UniProt P61073); experiment: Calcium mobilization assay, MDA-MB-231 cells transduced with CXCR4 only; type: cell-based
T3 construct: expressed in transfected cells; host or cells: MDA-MB-231 (adenoviral transduction)
T3 sequence (P61073 whole entry): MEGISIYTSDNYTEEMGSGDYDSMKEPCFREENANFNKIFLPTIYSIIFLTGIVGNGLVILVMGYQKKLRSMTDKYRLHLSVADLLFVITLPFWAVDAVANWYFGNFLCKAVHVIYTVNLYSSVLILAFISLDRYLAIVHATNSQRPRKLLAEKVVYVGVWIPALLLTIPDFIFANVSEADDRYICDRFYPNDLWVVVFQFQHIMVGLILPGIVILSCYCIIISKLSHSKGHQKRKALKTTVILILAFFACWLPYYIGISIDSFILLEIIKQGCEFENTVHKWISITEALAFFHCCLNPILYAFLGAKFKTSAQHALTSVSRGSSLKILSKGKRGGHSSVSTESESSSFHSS
Description: The next day, cells were co-transduced with 10 MOI of CXCR4 and 30 MOI of GPCRx. Adenoviruses encoding HA-VC were used to adjust the total amount of adenoviruses transduced. After 2 days, cells were treated with antagonist with indicated amounts and incubated with Cal 6 (FLIPR® Calcium 6 Assay Kit by Molecular Devices, Cat. R8191) for 2 hr. […] The results were normalized for base-line activity. […] Data represent three independent experiments (mean±SEM).

For `CC(C)NCCCC[C@H](NC(=O)[C@H]1CCC(=O)N[C@@H](Cc2ccccc2)C(=O)N[C@@H](Cc2ccc(O)cc2)C(=O)N[C@@H](CCCCNC(C)C)C(=O)N[C@H](CCCNC(=N)N)C(=O)N[C@@H](Cc2ccc3ccccc3c2)C(=O)NCC(=O)N1)C(N)=O` [LY2510924] (FY[Lys(iPr)][dR][2Nal]G[dE][Lys(iPr)]-NH2; lactam N-7), the “block of CXCL12 effect on cell proliferation” value (shortened to “block of CXCL12 effect”) (A549-CXCR4-ADRB2 cells [1]) was “blocked the CXCL12 effect” and the death of mice (A549-CXCR4-ADRB2 cells [2]) was 3 out of 10.

`COc1ccccc1OCCNCC(O)COc1cccc2[nH]c3ccccc3c12` (centres unmarked) [Carvedilol] was tested, and the “suppression of tumor growth, single administration” value [3] was “limited suppression of tumor growth” and the IC50 [4] was 11700 nM.

`OCc1cc(C(O)CNCCCCCCOCCCCc2ccccc2)ccc1O` (centres unmarked) [salmeterol, Salmeterol] was tested, and the “ERK1/2 activation, co-stimulation with CXCL12 and salmeterol” value (ERK1/2 [5]; MDA-MB-231-CXCR4-ADRB2 cells, 10 nM each, 20 minutes) was “synergistically increased”, the “ERK1/2 activation, single agonist” value (ERK1/2 [5]) was “induced ERK activation after 20 minutes” and the “ERK1/2 phosphorylation, co-stimulation with CXCL12 and salmeterol” value (ERK1/2 [6]) was “significantly activated”.

In the case of `c1cc(CN2CCCNCCNCCCNCC2)ccc1CN1CCCNCCNCCCNCC1` [AMD3100, plerixafor], the “block of CXCL12 effect” value (A549-CXCR4-ADRB2 cells [1]) is reported as “blocked the CXCL12 effect”, the “decrease of IC50 of Ca2+ response upon co-treatment of carvedilol, U937” value (CXCR4-ADRB2 heteromer [7]; Carvedilol 10 μM) is reported as “about 6.4 fold” and the “suppression of enhanced calcium signaling, co-administration with carvedilol” value (CXCR4-ADRB2 heteromer [8]; FIG. 6, AMD3100 10 μM with carvedilol 10 μM) is reported as “greater suppression of the calcium signaling”. For the same compound, the “decrease of IC50 of Ca2+ response upon co-administration of Carvedilol” value (CXCR4-ADRB2 heteromer [8]) was “about 10.5 fold” and the “decrease of IC50 of Ca2+ response upon co-treatment of carvedilol, HL-60” value (CXCR4-ADRB2 heteromer [9]) was “about 4.4 fold”.

For `NCCCCN(Cc1nc2ccccc2[nH]1)[C@H]1CCCc2cccnc21` [AMD070], the “block of CXCL12 effect” value (A549-CXCR4-ADRB2 cells [1]) was “blocked the CXCL12 effect”, the “decrease of IC50 of Ca2+ response upon co-treatment of carvedilol, HL-60” value (CXCR4-ADRB2 heteromer [9]) was “about 12.7 fold” and the “inhibition of tumor growth, co-administration with Carvedilol” value ([3]; AMD070 3 or 10 mg/kg with Carvedilol 30 mg/kg) was “effectively inhibited the growth of the tumor”. The “suppression of tumor growth, single administration” value [3] was “limited suppression of tumor growth”.

With “CXCL12: C-X-C Motif Chemokine ligand 12, CXCR4 agonist” the “ERK1/2 activation, single agonist” value (ERK1/2 [5]) was “induced activation of ERK1/2 after 10 minutes”, the “increase of cell proliferation rate” value (A549-CXCR4-ADRB2 cells [1]; CXCL12 100 nM) was “about 20%” and the “calcium response, single agonist, U937” value (CXCR4-ADRB2 heteromer [7]; FIG. 26A, CXCL12 200 nM, formoterol 10 μM) was “evoked an intercellular calcium mobilization”. The “calcium response, single agonist, cells overexpressing ADRB2 alone” value (ADRB2) was “did not induced calcium response”, the “internalization of CXCR4-GFP with ADRB2, substance alone” value (CXCR4-ADRB2 heteromer [10]) was “induced internalization of CXCR4-GFP with ADRB2” and the “calcium response, single agonist, cells expressing CXCR4” value (CXCR4; FIG. 5A, CXCL12 15 nM, salmeterol 100 nM) was “evoked intracellular calcium mobilization”. The EC50 (CXCR4; read-out: EC50 concentration against CXCR4) was roughly 15 nM and the “calcium response, single agonist, HL-60” value (CXCR4-ADRB2 heteromer [9]; FIG. 26B, CXCL12 200 nM, formoterol 10 μM) was “evoked an intercellular calcium mobilization”.

For `N=C(N)NCCC[C@H](NC(=O)[C@@H]1CSSC[C@H](NC(=O)[C@H](Cc2ccc3ccccc3c2)NC(=O)[C@H](CCCNC(=N)N)NC(=O)[C@H](CCCNC(=N)N)NC(=O)c2ccc(F)cc2)C(=O)N[C@@H](Cc2ccc(O)cc2)C(=O)N[C@@H](CCCNC(N)=O)C(=O)N[C@@H](CCCCN)C(=O)N[C@H](CCCCN)C(=O)N2CCC[C@H]2C(=O)N[C@@H](Cc2ccc(O)cc2)C(=O)N[C@@H](CCCNC(=N)N)C(=O)N[C@@H](CCCNC(N)=O)C(=O)N1)C(N)=O` [BKT140] ({Benzoyl(4-F)}-RR[2Nal]CY[Cit]K[dK]PYR[Cit]CR-NH2; disulfide 4-13), the “block of CXCL12 effect” value (A549-CXCR4-ADRB2 cells [1]) was “blocked the CXCL12 effect”, the IC50 (CXCR4-ADRB2 heteromer [8]; CXCR4 + ADRB2 (+Carvedilol 600 nM), co-treated with Carvedilol 600 nM (its IC90)) was 1.94 nM and the IC50 (CXCR4-ADRB2 heteromer [8]; CXCR4 + ADRB2 (−Carvedilol 600 nM), CXCR4 inhibitor only) was 88.7 nM. The “decrease of IC50 of Ca2+ response upon co-administration of Carvedilol” value (CXCR4-ADRB2 heteromer [8]) was “about 45.7 fold” and the IC50 (CXCR4; Table 4, cells expressing CXCR4 alone, CXCR4 inhibitor only, read-out: IC50 of Ca2+ response, CXCR4) was 579 ± 204 nM.

From patent publication US20220273751A1, “GPCR HETEROMER INHIBITORS AND USES THEREOF” (GPCR THERAPEUTICS, INC., priority 2019, published 2022)
